Values of other authors in patent US6376509B2, “Melanocortin receptor agonists” (Merck & Co., Inc., priority 2000, dated 2002).

Tests used:
erectile dysfunction = details: for duration of effect / onset of action: after an oral dose; for share of patients with adequate response: oral, men with erectile dysfunction
[1] = tested on: psychogenic erectile dysfunction

CCCc1nn(C)c2c(=O)[nH]c(-c3cc(S(=O)(=O)N4CCN(C)CC4)ccc3OCC)nc12 [sildenafil]
duration of effect (erectile dysfunction): about 4 hours | onset of action (erectile dysfunction): 30 to 60 min | share of patients with adequate response (erectile dysfunction): about 70%

Ac-Nle-c[Asp-His-DPhe-Arg-Trp-Lys]-NH2 [MT-II]
absorption into the systemic circulation ([1]; in vivo, po): not absorbed into the systemic circulation | response rate ([1]; injected intramuscularly or subcutaneously, males with psychogenic erectile dysfunction): 75% | duration of action ([1]; subcutaneous injection): approximately 2.5 hours | time to onset of erection ([1]; subcutaneous injection): 10 to 20 min

Cc1ccc(N(CC2=NCCN2)c2cccc(O)c2)cc1 [phentolamine]
duration of effect (erectile dysfunction): 2 h | onset of action (erectile dysfunction): 5 to 30 min | share of patients with adequate response (erectile dysfunction): 35-40%
